Key:
[1] = Established and other potentially significant drug interactions with JULUCA (effect on concentration); format: in vivo, human; conditions: based on drug interaction trials or predicted interactions
Source text: (§1) These recommendations are based on either drug interaction trials of individual components or predicted interactions due to the expected magnitude of interaction and potential for serious adverse events or loss of efficacy.

[2] = human, in vivo
[3] = human, in vivo; remark: listed apart in the source
[4] = Solubilities of non-micronized dolutegravir sodium in various solvents at 25° C.; format: physicochemical
[5] = Pre-dose concentrations of DTG and RPV at Weeks 4, 24 and 48 or withdrawal in participants switching to DTG + RPV; format: in vivo, human
Description: (§2) First set of participants (DTG 50 mg) received DIG 50 mg+RPV 25 mg together once daily, with a meal, in an open-label fashion up to Week 52 during early switch phase. Second set of participants (RPV 25 mg) also received DTG 50 mg+RPV 25 mg together once daily, with a meal, in an open-label fashion up to Week 52 during early switch phase.
(§3) First set of participants (DTG 50 mg) received DTG 50 mg+RPV 25 mg together once daily, with a meal, in an open-label fashion up to Week 52 during early switch phase. Second set of participants (RPV 25 mg) also received DTG 50 mg+RPV 25 mg together once daily, with a meal, in an open-label fashion up to Week 52 during early switch phase.

[6] = Pre-dose concentrations of DTG and RPV at Weeks 2, 4 and 8 in the first 20 participants who switch from EFV or NVP to DTG + RPV; format: in vivo, human
Description: as §2, §3

[7] = Drug interaction trials: effect of rilpivirine on pharmacokinetics of coadministered drugs; conditions: No Effect = 1.00
[8] = Drug interaction trials: effect of dolutegravir on pharmacokinetics of coadministered drugs
Source text: as §1

[9] = Food effect pharmacokinetics: high-fat or moderate-fat meal versus fasted (Tables 20, 21)
Source text: Cmax, AUC0-t, AUC0-∞ and AUClast are standard pharmacokinetic parameters that can be estimated manually or by using modelling software well known in the art, such as the Pharsight WinNonlin package using a non-compartmental model. The general basis for calculation of these quantities is well-known (e.g. see Rowland & Tozer (2010) Clinical Pharmacokinetics and Pharmacodynamics: Concepts and Applications ISBN 978-0781750097, or Jambhekar & Breen (2012) Basic Pharmacokinetics ISBN 978-0853699804). Typically the parameters will be assessed as the average (e.g. geometric or arithmetic mean) from within a group of at least 12 (and normally between 24 and 36) healthy human adults. Parameters should be measured in accordance with standards and practices which would be acceptable to a pharmaceutical regulatory agency such as FDA, EMA, MHLW, or WHO. The values may be based on measurements taken at appropriate intervals following the time of tablet ingestion, such as every hour, or at increasingly sparse sampling intervals, such as 1, 3, 5, 7, 9, 11, 13, 15, 20, and 24 hours after ingestion.

[10] = Dolutegravir oral pharmacokinetics (absorption, steady state, population pharmacokinetic analyses); format: in vivo, human
[11] = Excretion after a single oral dose of [14C] dolutegravir; format: in vivo, human; conditions: single oral dose of [14C] dolutegravir
[12] = biological target: CYP3A4 (Homo sapiens, UniProt P08684); conditions: cited from earlier work
[13] = Rilpivirine oral pharmacokinetics; format: in vivo, human
[14] = Excretion after single dose oral administration of [14C] rilpivirine; format: in vivo, human; conditions: single dose oral [14C] rilpivirine
Source text: In feces, unchanged rilpivirine accounted for on average 25% of the administered dose. […] The pharmacokinetic properties of rilpivirine have been evaluated in adult healthy subjects and in adult antiretroviral treatment-naïve HIV-1-infected subjects. Exposure to rilpivirine was generally lower in HIV-1 infected subjects than in healthy subjects.

[15] = system: cytochrome P450 CYP3A; test: Rilpivirine in vitro oxidative metabolism; format: in vitro ADME; conditions: in vitro experiments
[16] = metformin 500 mg twice daily, dolutegravir 50 mg once daily
[17] = metformin 500 mg twice daily, dolutegravir 50 mg twice daily
[18] = high-fat meal compared with fasted conditions
[19] = moderate-fat meal compared with fasted conditions

Chain of CYP3A4 (P08684 whole entry): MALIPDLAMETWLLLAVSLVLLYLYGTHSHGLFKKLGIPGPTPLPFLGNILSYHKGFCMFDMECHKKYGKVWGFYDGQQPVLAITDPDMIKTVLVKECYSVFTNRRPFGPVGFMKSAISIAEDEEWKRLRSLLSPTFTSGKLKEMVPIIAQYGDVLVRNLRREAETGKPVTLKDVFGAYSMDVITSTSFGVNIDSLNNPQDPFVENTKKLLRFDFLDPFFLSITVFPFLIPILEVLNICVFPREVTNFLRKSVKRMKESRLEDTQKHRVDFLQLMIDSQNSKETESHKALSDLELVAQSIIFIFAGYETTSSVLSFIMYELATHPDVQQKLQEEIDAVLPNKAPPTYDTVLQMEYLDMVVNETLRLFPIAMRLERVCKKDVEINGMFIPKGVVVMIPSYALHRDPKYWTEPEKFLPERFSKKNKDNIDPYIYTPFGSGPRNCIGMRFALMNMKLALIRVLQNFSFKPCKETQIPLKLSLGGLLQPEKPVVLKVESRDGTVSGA

## COc1ccc2[nH]c([S+]([O-])Cc3ncc(C)c(OC)c3C)nc2c1 (centres unmarked) [Omeprazole]
[1]; concomitant drug with JULUCA
  Effect on Concentration of Rilpivirine: ↓Rilpivirine
[2]
  AUC of coadministered drug, geometric mean ratio with/without EDURANT: 0.86
  Cmax of coadministered drug, geometric mean ratio with/without EDURANT: 0.86
[3]
  Rilpivirine AUC, geometric mean ratio with/without coadministered drug: 0.60
  Rilpivirine Cmax, geometric mean ratio with/without coadministered drug: 0.60
  Rilpivirine Cmin, geometric mean ratio with/without coadministered drug: 0.67

## C[C@@H]1CCO[C@H]2Cn3cc(C(=O)NCc4ccc(F)cc4F)c(=O)c([O-])c3C(=O)N12.[Na+] [dolutegravir sodium, sodium (4R,12aS)-9-{[(2,4-difluorophenyl)methyl]carbamoyl}-4-methyl-6,8-dioxo-3,4,6,8,12,12a-hexahydro-2H-pyrido[1′,2′:4,5]pyrazino[2,1-b][1,3]oxazin-7-olate]
[4]; FaSSIF, pH 6.5, 25° C.
  Descriptor (solubility): Very slightly soluble
[4]; FaSSIF, pH 6.5, 25° C., listed as Non-micronized dolutegravir sodium
  Descriptor (solubility): very slightly soluble
[4]; FeSSIF, pH 5.0, 25° C.
  Descriptor (solubility): Very slightly soluble
[4]; FeSSIF, pH 5.0, 25° C., listed as Non-micronized dolutegravir sodium
  Descriptor (solubility): very slightly soluble
[4]; SGF, pH 1.2, 25° C.
  Descriptor (solubility): Practically insoluble
[4]; SGF, pH 1.2, 25° C., listed as Non-micronized dolutegravir sodium
  Descriptor (solubility): practically insoluble
[4]; Water, solution pH 10.1, 25° C.
  Descriptor (solubility): Slightly soluble
[4]; Water, solution pH 10.1, 25° C., listed as Dolutegravir sodium
  Descriptor (solubility): slightly soluble
[4]; simulated gastric fluid, thermodynamic from solid, SGF, pH 1.2, 25° C., 8 hours
  solubility at 8 h: 21 µg/mL
[4]; thermodynamic from solid, FaSSIF, pH 6.5, 25° C., 4 hours
  solubility at 4 h: 239 µg/mL
[4]; thermodynamic from solid, FeSSIF, pH 5.0, 25° C., 4 hours
  solubility at 4 h: 170 µg/mL
[4]; thermodynamic from solid, Water, solution pH 10.1, 25° C., equilibrium after 4 hours
  solubility at 4 h: 3180 µg/mL
[5]; Example 3 (Table 10), Week 4
  Pre-dose concentration, Mean ± Standard Deviation: 1581.06 ± 1146.860 µg/L
[5]; Example 3 (Table 10), Week 24
  Pre-dose concentration, Mean ± Standard Deviation: 1835.68 ± 1120.539 µg/L
[5]; Example 3 (Table 10), Week 48
  Pre-dose concentration, Mean ± Standard Deviation: 1915.11 ± 1304.238 µg/L
[5]; Example 5 (Table 13), Week 4
  Pre-dose concentration, Mean ± Standard Deviation: 1578.88 ± 1170.967 µg/L
[5]; Example 5 (Table 13), Week 24
  Pre-dose concentration, Mean ± Standard Deviation: 1447.23 ± 917.677 µg/L
[5]; Example 5 (Table 13), Week 48
  Pre-dose concentration, Mean ± Standard Deviation: 1384.36 ± 889.829 µg/L
[6]; Example 3 (Table 10), Week 2
  Pre-dose concentration, Mean ± Standard Deviation: 821.25 ± 574.607 µg/L
[6]; Example 3 (Table 10), Week 4
  Pre-dose concentration, Mean ± Standard Deviation: 994.00 ± 581.201 µg/L
[6]; Example 3 (Table 10), Week 8
  Pre-dose concentration, Mean ± Standard Deviation: 1561.34 ± 1096.381 µg/L
[6]; Example 5 (Table 13), Week 2
  Pre-dose concentration, Mean ± Standard Deviation: 834.58 ± 639.622 µg/L
[6]; Example 5 (Table 13), Week 4
  Pre-dose concentration, Mean ± Standard Deviation: 1218.23 ± 842.703 µg/L
[6]; Example 5 (Table 13), Week 8
  Pre-dose concentration, Mean ± Standard Deviation: 1472.50 ± 818.774 µg/L

## C#C[C@]1(O)CC[C@H]2[C@@H]3CCc4cc(O)ccc4[C@H]3CC[C@@]21C [Ethinyl estradiol]
[2]
  AUC of coadministered drug, geometric mean ratio with/without EDURANT: 1.14
  Cmax of coadministered drug, geometric mean ratio with/without EDURANT: 1.17
[7]
  Cmin of coadministered drug, geometric mean ratio with/without EDURANT: 1.09
[8]; No Effect = 1.00
  Cmax of coadministered drug, geometric mean ratio with/without dolutegravir: 0.99
  Cτ or C24 of coadministered drug, geometric mean ratio with/without dolutegravir: 1.02

## C#C[C@]1(O)CC[C@H]2[C@@H]3CCC4=CC(=NO)CC[C@@H]4[C@H]3CC[C@@]21CC (mixture of isomers) [Norelgestromin]
[8]; No Effect = 1.00
  Cmax of coadministered drug, geometric mean ratio with/without dolutegravir: 0.89
  Cτ or C24 of coadministered drug, geometric mean ratio with/without dolutegravir: 0.93

## CCCc1nn(C)c2c(=O)[nH]c(-c3cc(S(=O)(=O)N4CCN(C)CC4)ccc3OCC)nc12 [Sildenafil]
[2]
  AUC of coadministered drug, geometric mean ratio with/without EDURANT: 0.97
  Cmax of coadministered drug, geometric mean ratio with/without EDURANT: 0.93
[3]
  Rilpivirine AUC, geometric mean ratio with/without coadministered drug: 0.98
  Rilpivirine Cmax, geometric mean ratio with/without coadministered drug: 0.92
  Rilpivirine Cmin, geometric mean ratio with/without coadministered drug: 1.04

## C[C@@H]1CCO[C@H]2Cn3cc(C(=O)NCc4ccc(F)cc4F)c(=O)c(O)c3C(=O)N12 [Dolutegravir, (4R,12aS)—N-[(2,4-difluorophenyl)methyl]-7-hydroxy-4-methyl-6,8-dioxo-3,4,12,12a-tetrahydro-2H-pyrido[5,6]pyrazino[2,6-b][1,3]oxazine-9-carboxamide]
[9]; human, in vivo
  Increase of AUC(0-∞): approximately 87%
[9]; moderate- and high-fat meals each, compared with fasted conditions
  Increase of Cmax: approximately 75%
[10]; human, plasma, oral, population pharmacokinetic analyses, read-out: Terminal half-life (converted)
  half-life: ~14 h
[10]; once-daily dosing
  Time to pharmacokinetic steady state: ≤ 5 days
[10]; population pharmacokinetic analyses
  Apparent clearance (CL/F): 1.0 L per hour
[11]
  Renal elimination of unchanged drug: less than 1 % of the dose
  Total oral dose excreted in the urine: Thirty-one
  Total oral dose excreted unchanged in the feces: 53%
[12]
  Extent as substrate of CYP3A4: about 15%

## CN(C)C(=N)N=C(N)N [Metformin]
[1]
  Effect on Concentration of the concomitant drug: ↑Metformin
[2]
  AUC of coadministered drug, geometric mean ratio with/without EDURANT: 0.97
  Cmax of coadministered drug, geometric mean ratio with/without EDURANT: 1.02
[8]; [16]
  AUC of coadministered drug, geometric mean ratio with/without dolutegravir: 1.79
  Cmax of coadministered drug, geometric mean ratio with/without dolutegravir: 1.66
[8]; [17]
  AUC of coadministered drug, geometric mean ratio with/without dolutegravir: 2.45
  Cmax of coadministered drug, geometric mean ratio with/without dolutegravir: 2.11

## Cc1cc(/C=C/C#N)cc(C)c1Nc1ccnc(Nc2ccc(C#N)cc2)n1 [Rilpivirine, 4-[[4-[[4-[(E)-2-cyanoethenyl]-2,6-dimethylphenyl]amino]-2-pyrimidinyl]amino]benzonitrile]
[9]; [18]
  Increase of AUC(0-∞): 72%
  Increase of Cmax: 117%
[9]; [19]
  Increase of AUC(0-∞): 57%
  Increase of Cmax: 89%
[13]; human, in vivo, oral, read-out: Terminal elimination half-life (converted)
  half-life: ~50 h
[13]; taken with only a protein-rich nutritional drink
  Exposures lower than when taken with a meal: 50%
[14]
  Unchanged rilpivirine in urine: < 1 % of dose
[14]; on average
  Radioactivity retrieved in feces: 85%
  Radioactivity retrieved in urine: 6.1%
  Unchanged rilpivirine in feces: 25 % of the administered dose
[15]
  Metabolic pathway: primarily metabolized by CYP3A
[15]; listed as rilpivirine
  Metabolic pathway: primarily undergoes oxidative metabolism mediated by the cytochrome P450 CYP3A system

## COC(=O)N[C@H](C(=O)N1CCC[C@H]1c1nc(-c2ccc(-c3ccc(-c4c[nH]c([C@@H]5CCCN5C(=O)[C@@H](NC(=O)OC)C(C)C)n4)cc3)cc2)c[nH]1)C(C)C [Daclatasvir]
[8]; No Effect = 1.00
  Cmax of coadministered drug, geometric mean ratio with/without dolutegravir: 1.03
  Cτ or C24 of coadministered drug, geometric mean ratio with/without dolutegravir: 1.06

## CC(=O)Nc1ccc(O)cc1 [Acetaminophen]
[2]
  AUC of coadministered drug, geometric mean ratio with/without EDURANT: 0.91
  Cmax of coadministered drug, geometric mean ratio with/without EDURANT: 0.97
[3]
  Rilpivirine AUC, geometric mean ratio with/without coadministered drug: 1.16
  Rilpivirine Cmax, geometric mean ratio with/without coadministered drug: 1.09
  Rilpivirine Cmin, geometric mean ratio with/without coadministered drug: 1.26

From patent publication US12011506B2, “Combination and uses and treatments thereof” (priority 2017, dated 2024)
